Read-outs that look alike come from different tables or passages of the source.
Assays:
[1] = target: PI3K γ (Homo sapiens (Human), UniProt P48736); assay: PI3-Kinase Promega ADP-Glo Max assay; type: biochemical
Procedure: (§4) Promega ADP-Glo Max assay kit (Cat. No. V7002) was utilized to determine IC50 values for α, β, δ and γ isoforms of human Class I PI3 kinases (Millipore). […] Reactions were incubated at room temperature for 2 hours followed by addition of 25 uL of stop solution. After a 40-minute incubation at room temperature, 50 uL of Promega detection mix was added followed by incubation for 1 hour at room temperature. Plates were then read on Envision plate reader in luminescence mode. Data was converted to % inhibition using the following equation below:
(§5) [formula] where S is the sample luminescence, Pos is a positive control without added PI3K, Neg is the negative control without added compound. Data was then plotted as % inhibition vs compound concentration.

[2] = target: PI3K-γ in RAW264.7 macrophages (Mus musculus (Mouse), UniProt Q9JHG7); assay: Raw264.7 p110 γ assay (phospho-AKT, C5a stimulated); type: cell-based
Description: Briefly, serum-starved RAW264.7 cells are stimulated with a known GPCR agonist C5a. […] Cells can be treated with test compounds prior to, simultaneously with, or subsequent to the stimulation by C5a. RAW 264.7 cells respond to the complement component fragment C5a through activation of the C5a receptor, and the C5a receptor activates macrophages and induces cell migration.

[3] = system: human T cells; assay: Concanavalin A-induced model for activation of human T cells (IFN-γ); type: cell-based; details: isoform selective concentrations
[4] = system: LPS induced neutrophil influx in BALF; assay: LPS-induced neutrophilia, oral administration; type: in vivo; details: rat, p.o., 4 hours post-LPS challenge
Description: (§1) This study also includes assessment of the exposure to the compounds in plasma and lung tissues.

[5] = Oral PK in the rat LPS studies (free plasma concentration); type: in vivo; details: p.o. 0.2 mg/kg
Description: as §1

[6] = system: CXCL12 induced p-AKT in M1 polarized macrophage; assay: CXCL12-induced p-AKT induction assay, M1 polarized macrophages; type: cell-based, mouse
Description: (§2) Long bones from young C57B6 mice were harvested and bone marrow was extruded by gentle lavage of the bone marrow cavities with a 28 guage needle. Red blood cells were removed using red blood cell lysis buffer (Sigma). Bone marrow cells were differentiated to macrophages using MCSF for 6 days (RPMI and 20% FCS) with one media change (with removal of all non-adherent cells) at day 3. Macrophages were polarized into M0 (MCSF), M1 (MCSF, IFNγ, and LPS for 1 day), or M2 (MCSF, IL4 for 2 days).
(§3) CXCL12-induced p-AKT induction assay: Polarized macrophages were lifted with Acutase, and plated at 0.5M cells per well (0.5 ml) in a deep well (2 ml) non adherant plate in polarization media for 1 hour. […] CXCL12 was added, and the cells were mixed on a plate shaker for 2 minutes. 1 ml of 37 degree FACS Lyse/fix buffer (BD bioscience) was added and the plate was mixed for 1 minute. The plates were spun and decanted and frozen at −80° C. Phospho AKT staining with anti Phospho AKT 473 PERCP labeled (Cell Signaling Technologies) was performed and measured by flow cytometry. Total cell MFI was used to calculate the effect of tested compound on CXCL12 induction of phospho AKT.

[7] = system: CXCL12 induced p-AKT in M2 polarized macrophage; assay: CXCL12-induced p-AKT induction assay, M2 polarized macrophages; type: cell-based, mouse
Description: as §2, §3

[8] = system: LLC tumor; assay: LLC tumor brei model with or without cyclophosphamide; type: in vivo, mouse; details: BB 15 mg/kg QD PO; cyclophosphamide 50 mg/kg EOD IP, FIG. 48
Procedure: In this experiment, treatment began when tumors reached approx. 150 mm^3—around day 12. Caliper and xenogen images were monitored. Treatment groups n=13-15/group. […] Samples for FACs analysis were collected on day 23 post implant. Using FACS, cells were assayed for the level of CD11b and Gr-1.

[9] = Pharmacokinetics of Compound 88, oral; type: in vivo, mouse; details: female C57 mice
Procedure: A similar study was carried out using Compound 88. […] Below is a table that details the results for Compound 88: […]

[10] = target: PI3K α (Homo sapiens (Human), UniProt P42336); assay: PI3-Kinase Promega ADP-Glo Max assay; type: biochemical
Procedure: as §4, §5

[11] = target: PI3K β (Homo sapiens (Human), UniProt P42338); assay: PI3-Kinase Promega ADP-Glo Max assay; type: biochemical
Procedure: as §4, §5

[12] = target: PI3K δ (Homo sapiens (Human), UniProt O00329); assay: PI3-Kinase Promega ADP-Glo Max assay; type: biochemical
Procedure: as §4, §5

[13] = target: PI3K-δ in RAJI cells (Homo sapiens (Human), UniProt O00329); assay: RAJI p110 δ assay (phospho-AKT, anti-human IgM stimulated); type: cell-based
PI3K-δ in RAJI cells, sequence (O00329 whole entry): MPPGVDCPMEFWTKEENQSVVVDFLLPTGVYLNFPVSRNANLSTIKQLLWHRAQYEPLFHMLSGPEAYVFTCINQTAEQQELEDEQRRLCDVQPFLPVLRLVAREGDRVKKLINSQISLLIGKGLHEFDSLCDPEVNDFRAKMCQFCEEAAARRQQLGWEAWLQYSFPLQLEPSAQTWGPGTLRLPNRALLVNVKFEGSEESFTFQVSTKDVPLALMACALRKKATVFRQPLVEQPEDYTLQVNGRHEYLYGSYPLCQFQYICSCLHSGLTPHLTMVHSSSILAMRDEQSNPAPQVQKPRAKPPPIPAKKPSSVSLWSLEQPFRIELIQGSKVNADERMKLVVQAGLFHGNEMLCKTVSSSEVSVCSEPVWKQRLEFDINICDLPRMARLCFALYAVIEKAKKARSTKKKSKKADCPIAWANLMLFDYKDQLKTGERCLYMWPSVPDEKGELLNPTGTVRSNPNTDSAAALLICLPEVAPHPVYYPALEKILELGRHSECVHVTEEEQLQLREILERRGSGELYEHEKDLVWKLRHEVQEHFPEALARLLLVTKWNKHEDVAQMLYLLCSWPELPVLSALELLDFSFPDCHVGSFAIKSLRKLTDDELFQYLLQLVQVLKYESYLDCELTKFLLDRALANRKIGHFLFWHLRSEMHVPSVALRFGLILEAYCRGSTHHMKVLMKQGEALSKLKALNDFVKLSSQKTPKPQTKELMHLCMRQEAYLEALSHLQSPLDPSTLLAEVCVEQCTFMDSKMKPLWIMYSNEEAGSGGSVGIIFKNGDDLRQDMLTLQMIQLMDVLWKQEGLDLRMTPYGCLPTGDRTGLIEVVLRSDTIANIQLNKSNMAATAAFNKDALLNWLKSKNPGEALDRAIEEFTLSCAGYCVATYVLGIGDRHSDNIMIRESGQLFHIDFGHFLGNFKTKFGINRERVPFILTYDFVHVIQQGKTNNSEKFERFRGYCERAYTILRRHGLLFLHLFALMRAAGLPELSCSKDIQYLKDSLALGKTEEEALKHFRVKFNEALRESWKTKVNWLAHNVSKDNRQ
PI3K-δ in RAJI cells, sequence (P27986 whole entry partner): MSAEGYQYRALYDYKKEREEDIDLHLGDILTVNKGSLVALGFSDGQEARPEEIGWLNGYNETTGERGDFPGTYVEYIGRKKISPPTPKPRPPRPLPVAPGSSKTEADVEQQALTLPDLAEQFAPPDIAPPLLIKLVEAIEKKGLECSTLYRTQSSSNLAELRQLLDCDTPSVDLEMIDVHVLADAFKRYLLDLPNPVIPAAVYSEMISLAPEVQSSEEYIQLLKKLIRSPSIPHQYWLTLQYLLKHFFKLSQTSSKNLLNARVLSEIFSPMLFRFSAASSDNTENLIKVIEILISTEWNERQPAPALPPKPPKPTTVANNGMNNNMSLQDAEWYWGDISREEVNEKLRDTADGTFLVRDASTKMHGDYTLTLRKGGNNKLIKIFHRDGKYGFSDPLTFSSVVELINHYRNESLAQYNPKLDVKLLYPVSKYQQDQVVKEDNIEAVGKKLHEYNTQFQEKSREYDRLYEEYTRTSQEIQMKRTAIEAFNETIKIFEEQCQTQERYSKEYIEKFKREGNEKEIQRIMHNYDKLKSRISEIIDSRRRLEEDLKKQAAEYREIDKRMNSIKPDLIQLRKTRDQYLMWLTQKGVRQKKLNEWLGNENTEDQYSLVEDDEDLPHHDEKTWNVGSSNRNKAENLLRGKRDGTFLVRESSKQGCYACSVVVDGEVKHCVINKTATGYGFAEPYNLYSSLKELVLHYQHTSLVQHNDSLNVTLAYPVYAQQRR
Procedure: Reduction of phospho-AKT is indicative of compounds that may inhibit B-cell proliferation and function in certain diseases.
Certain compounds provided herein were tested in RAJI cell model using procedures as described above.

PI3K-γ in RAW264.7 macrophages, sequence (Q9JHG7 whole entry, canonical isoform): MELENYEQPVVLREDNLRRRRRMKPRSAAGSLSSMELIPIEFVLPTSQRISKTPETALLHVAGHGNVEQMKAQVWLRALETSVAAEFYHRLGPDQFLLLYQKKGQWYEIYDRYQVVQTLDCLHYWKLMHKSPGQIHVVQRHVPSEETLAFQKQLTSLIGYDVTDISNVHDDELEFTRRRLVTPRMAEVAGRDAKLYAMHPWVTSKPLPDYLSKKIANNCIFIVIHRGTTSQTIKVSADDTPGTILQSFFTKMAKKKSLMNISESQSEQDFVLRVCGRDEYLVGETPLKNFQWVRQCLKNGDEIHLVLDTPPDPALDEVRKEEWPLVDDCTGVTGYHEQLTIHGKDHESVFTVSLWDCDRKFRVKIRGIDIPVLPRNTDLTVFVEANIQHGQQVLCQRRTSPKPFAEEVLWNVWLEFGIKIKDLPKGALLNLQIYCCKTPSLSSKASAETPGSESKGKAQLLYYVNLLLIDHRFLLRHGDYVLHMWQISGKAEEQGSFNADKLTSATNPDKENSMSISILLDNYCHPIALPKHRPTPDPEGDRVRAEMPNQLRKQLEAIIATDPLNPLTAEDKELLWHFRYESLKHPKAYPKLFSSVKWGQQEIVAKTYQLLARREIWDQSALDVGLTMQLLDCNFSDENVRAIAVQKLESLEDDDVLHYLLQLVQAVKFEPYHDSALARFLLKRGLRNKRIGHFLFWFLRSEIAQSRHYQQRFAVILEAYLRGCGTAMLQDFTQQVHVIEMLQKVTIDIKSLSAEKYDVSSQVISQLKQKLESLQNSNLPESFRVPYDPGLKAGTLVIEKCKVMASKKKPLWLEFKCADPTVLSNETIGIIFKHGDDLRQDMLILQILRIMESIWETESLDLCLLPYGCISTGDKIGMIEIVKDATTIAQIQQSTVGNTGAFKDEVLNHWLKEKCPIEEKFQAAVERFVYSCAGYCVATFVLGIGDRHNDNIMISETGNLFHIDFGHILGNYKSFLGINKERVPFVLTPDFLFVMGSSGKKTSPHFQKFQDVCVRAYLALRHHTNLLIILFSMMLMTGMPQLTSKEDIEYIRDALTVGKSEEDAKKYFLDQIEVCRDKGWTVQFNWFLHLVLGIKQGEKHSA
PI3K γ, sequence (P48736 whole entry): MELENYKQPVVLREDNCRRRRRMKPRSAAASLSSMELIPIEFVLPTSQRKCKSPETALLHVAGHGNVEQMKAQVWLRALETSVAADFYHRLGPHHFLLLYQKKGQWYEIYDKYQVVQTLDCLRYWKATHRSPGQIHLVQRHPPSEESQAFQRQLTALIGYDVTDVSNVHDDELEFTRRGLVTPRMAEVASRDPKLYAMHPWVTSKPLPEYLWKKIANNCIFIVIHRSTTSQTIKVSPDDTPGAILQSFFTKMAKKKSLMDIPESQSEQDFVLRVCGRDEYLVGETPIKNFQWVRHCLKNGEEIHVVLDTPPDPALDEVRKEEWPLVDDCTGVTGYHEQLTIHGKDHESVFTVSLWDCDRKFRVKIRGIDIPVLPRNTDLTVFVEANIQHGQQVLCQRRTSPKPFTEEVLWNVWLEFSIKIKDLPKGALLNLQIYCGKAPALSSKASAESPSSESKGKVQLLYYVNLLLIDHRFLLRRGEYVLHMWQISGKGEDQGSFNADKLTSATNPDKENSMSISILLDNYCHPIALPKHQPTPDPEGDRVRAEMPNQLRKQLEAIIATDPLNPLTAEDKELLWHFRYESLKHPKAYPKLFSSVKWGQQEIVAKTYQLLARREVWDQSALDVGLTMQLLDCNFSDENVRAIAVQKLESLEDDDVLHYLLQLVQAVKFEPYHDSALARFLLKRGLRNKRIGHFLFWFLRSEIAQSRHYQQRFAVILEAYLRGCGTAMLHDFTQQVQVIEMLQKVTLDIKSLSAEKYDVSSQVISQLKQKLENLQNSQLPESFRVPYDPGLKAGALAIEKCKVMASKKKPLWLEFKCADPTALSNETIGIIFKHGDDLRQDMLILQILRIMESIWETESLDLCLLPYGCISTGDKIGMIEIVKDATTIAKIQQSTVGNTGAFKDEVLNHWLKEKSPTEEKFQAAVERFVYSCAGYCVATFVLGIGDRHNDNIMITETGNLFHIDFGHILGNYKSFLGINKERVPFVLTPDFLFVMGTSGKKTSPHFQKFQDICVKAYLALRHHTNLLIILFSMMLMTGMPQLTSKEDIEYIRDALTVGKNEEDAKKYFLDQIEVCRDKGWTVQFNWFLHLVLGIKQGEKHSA
PI3K δ, sequence (O00329 whole entry): as the sequence (O00329 whole entry) above
PI3K δ, sequence (P27986 whole entry partner): as the sequence (P27986 whole entry partner) above

Cc1cnc(C(=O)N[C@@H](C)c2cc3cccc(C#Cc4cnn(C)c4)c3c(=O)n2-c2ccccc2)c(N)n1 [Compound 68]
PI3K δ/PI3K γ IC50 (selectivity) ([1]; ratio of biochemical IC50s): W (W = > 1 to <10) | RAJI δ/Raw264.7 γ IC50 (selectivity) ([2]; ratio of cellular IC50s): W (W = > 1 to <10)

CC(C)n1c([C@H](C)Nc2ncnc(N)c2C#N)cc2cccc(-c3ccc(=O)n(C)c3)c2c1=O [Compound AA]
effect on IFN-γ [3]: highly selective inhibitor | Neutrophil in bronchoalveolar lavage fluid (BALF) [4]: reduced neutrophil | Free Plasma Conc (nM) […] ([5]; approximately 4 hours post LPS challenge): BLQ | Free Plasma Conc (nM) 1.5 h ([5]; at time of LPS challenge): BLQ | Inhibition of CXCL12-induced p-AKT [6]: did not significantly inhibit | Inhibition of CXCL12-induced p-AKT [7]: did not significantly inhibit

C/C=C/c1cccc2cc([C@H](C)NC(=O)c3c(N)nn4cccnc34)n(-c3ccccc3)c(=O)c12 [Compound 70]
PI3K δ/PI3K γ IC50 (selectivity) [1]: X (key: V = 0.1 to 1; W = > 1 to <10; X = 10 to <50; Y = 50 to <850) | RAJI δ/Raw264.7 γ IC50 (selectivity) [2]: X (key: V = 0.1 to 1; W = > 1 to <10; X = 10 to <50; Y = 50 to <850)

C[C@H](NC(=O)c1c(N)nn2cccnc12)c1cc2cccc(C#CC3CC3)c2c(=O)n1-c1ccccc1 [Compound 9]
PI3K δ/PI3K γ IC50 (selectivity) [1]: X (key: V = 0.1 to 1; W = > 1 to <10; X = 10 to <50; Y = 50 to <850) | RAJI δ/Raw264.7 γ IC50 (selectivity) [2]: Y (key: V = 0.1 to 1; W = > 1 to <10; X = 10 to <50; Y = 50 to <850)

O=P1(N(CCCl)CCCl)NCCCO1 (stereo not shown) [cyclophosphamide, reference compound]
Tumor growth, LLC tumor brei model [8]: reduced tumor growth by about the same amount

Cc1c(C#Cc2cccc3nc([C@H](C)NC(=O)c4c(N)nn5cccnc45)n(-c4ccccc4)c(=O)c23)cnn1C [Compound 88, (S)-2-amino-N-(1-(5-((1,5-dimethyl-1H-pyrazol-4-yl)ethynyl)-4-oxo-3-phenyl-3,4-dihydroquinazolin-2-yl)ethyl)pyrazolo[1,5-a]pyrimidine-3-carboxamide]
Stability in serum [9]: good stability in serum

C[C@H](NC(=O)c1c(N)nn2cccnc12)c1nc2cccc(C#CC(C)(C)C)c2c(=O)n1-c1ccccc1 [Compound 3]
IC50 [10]: 5 to 10 µM | IC50 [11]: 5 to 10 µM | IC50 [12]: 5 to 10 µM | IC50 [1]: 1 to 5 µM | PI3K δ/PI3K γ IC50 (selectivity) ([1]; ratio of biochemical IC50s): W (W = > 1 to <10) | IC50 [13]: 1 to 10 µM | RAJI δ/Raw264.7 γ IC50 (selectivity) [2]: X (key: V = 0.1 to 1; W = > 1 to <10; X = 10 to <50; Y = 50 to <850) | IC50 ([2]; phospho-AKT): 0.05 to 0.1 µM

— patent US11541059B2, “Heterocyclic compounds and uses thereof” (Infinity Pharmaceuticals, Inc., priority 2014, dated 2023)
